# ChEMBL document CHEMBL1153455, “N-(4-(4-(2,3-dichloro- or 2-methoxyphenyl)piperazin-1-yl)butyl)heterobiarylcarboxamides with functionalized linking chains as high affinity and enantioselective D3 receptor antagonists” (J Med Chem, 2009)
# pIC50, pKi: −log10 of the molar value.
# Target: D(1A) dopamine receptor (Homo sapiens, UniProt P21728)
# Assay: Displacement of [3H]SCH23390 from D1 receptor
# Details: not given
# Chain of D(1A) dopamine receptor (P21728 whole entry): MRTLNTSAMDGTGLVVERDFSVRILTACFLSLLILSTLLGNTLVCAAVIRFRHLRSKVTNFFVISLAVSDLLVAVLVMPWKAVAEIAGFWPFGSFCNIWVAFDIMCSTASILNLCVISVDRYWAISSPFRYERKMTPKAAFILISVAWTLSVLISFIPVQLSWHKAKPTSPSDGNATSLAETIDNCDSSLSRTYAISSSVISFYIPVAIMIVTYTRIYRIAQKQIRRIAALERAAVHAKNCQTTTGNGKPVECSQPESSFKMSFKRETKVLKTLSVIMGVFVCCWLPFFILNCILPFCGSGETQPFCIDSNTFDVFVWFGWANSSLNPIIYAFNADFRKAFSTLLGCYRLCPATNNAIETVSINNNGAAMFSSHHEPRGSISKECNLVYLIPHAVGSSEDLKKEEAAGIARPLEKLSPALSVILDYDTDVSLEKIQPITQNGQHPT
row,Structure (SMILES),pKi
1,O=C(NCCC(O)CN1CCN(c2cccc(Cl)c2Cl)CC1)c1cc2cc(F)ccc2[nH]1 (stereo unspecified),< 5.00
2,O=C(NCCCCN1CCN(c2cccc(Cl)c2Cl)CC1)c1cc2cc(I)ccc2o1,5.53
3,O=C(NCCC(O)CN1CCN(c2cccc(Cl)c2Cl)CC1)c1cc2cc(I)ccc2o1 (stereo unspecified),< 5.00
4,O=C(NC/C=C/CN1CCN(c2cccc(Cl)c2Cl)CC1)c1cc2ccccc2s1,5.76
5,O=C(NCC[C@H](O)CN1CCN(c2cccc(Cl)c2Cl)CC1)c1cc2ccccc2[nH]1,< 5.00
6,O=C(NCCC(O)CN1CCN(c2cccc(Cl)c2Cl)CC1)c1cc2ccccc2o1 (stereo unspecified),< 5.00
7,COc1ccc2[nH]c(C(=O)NCCC(O)CN3CCN(c4ccccc4OC)CC3)cc2c1 (stereo unspecified),< 5.00
8,O=C(NCC[C@@H](O)CN1CCN(c2cccc(Cl)c2Cl)CC1)c1cc2ccccc2[nH]1,< 5.00

# Other lines, results leading:
row,pKi,Structure (SMILES)
1,< 5.00,O=C(NCCC(O)CN1CCN(c2cccc(Cl)c2Cl)CC1)c1cc2cc(I)ccc2[nH]1 (stereo unspecified)
2,5.84,O=C(NC/C=C/CN1CCN(c2cccc(Cl)c2Cl)CC1)c1cc2ccccc2o1
3,< 5.00,COc1ccc2[nH]c(C(=O)NCCC(O)CN3CCN(c4cccc(Cl)c4Cl)CC3)cc2c1 (stereo unspecified)
4,< 5.00,COc1ccccc1N1CCN(CC(O)CCNC(=O)c2cc3cc(I)ccc3[nH]2)CC1 (stereo unspecified)
5,5.30,CCCOc1ccccc1N1CCN(CC(O)CCNC(=O)c2cc3ccccc3[nH]2)CC1 (stereo unspecified)
6,< 5.00,COc1ccccc1N1CCN(CC(O)CCNC(=O)c2cc3ccccc3[nH]2)CC1 (stereo unspecified)
7,5.18,COc1ccccc1N1CCN(CC(O)CCNC(=O)c2cc3ccccc3s2)CC1 (stereo unspecified)
8,5.30,COc1ccccc1N1CCN(CC(O)CCNC(=O)c2cc3cc(F)ccc3[nH]2)CC1 (stereo unspecified)
9,6.04,O=C(NC/C=C/CN1CCN(c2cccc(Cl)c2Cl)CC1)c1cc2ccccc2[nH]1
10,5.43,COc1ccccc1N1CCN(CC(O)CCNC(=O)c2cc3cc(I)ccc3o2)CC1 (stereo unspecified)
11,< 5.00,O=C(NCC(O)CCN1CCN(c2cccc(Cl)c2Cl)CC1)c1cc2ccccc2[nH]1 (stereo unspecified)
12,< 5.00,COc1ccccc1N1CCN(CC(O)CCNC(=O)c2cc3ccccc3o2)CC1 (stereo unspecified)
13,6.05,COc1ccccc1N1CCN(CCCCNC(=O)c2cc3cc(I)ccc3o2)CC1
14,6.17,COc1ccccc1N1CCN(C/C=C/CNC(=O)c2cc3ccccc3s2)CC1
15,6.00,COc1ccccc1N1CCN(C/C=C/CNC(=O)c2cc3ccccc3o2)CC1

# Species: Homo sapiens
# Assay: Selectivity of IC50 for human D2 like receptor to IC50 for human D3 receptor
# Details: not given
row,Structure (SMILES),fold change (FC)
1,COc1ccccc1N1CCN(CCCCNC(=O)c2cc3ccccc3s2)CC1,100
2,COc1ccc2[nH]c(C(=O)NCCC(O)CN3CCN(c4ccccc4OC)CC3)cc2c1 (stereo unspecified),> 100

# More lines, now with the values ahead:
row,fold change (FC),Structure (SMILES)
1,> 100,COc1ccc2[nH]c(C(=O)NCCC(O)CN3CCN(c4cccc(Cl)c4Cl)CC3)cc2c1 (stereo unspecified)
2,100,COc1ccccc1N1CCN(CC(O)CCNC(=O)c2cc3cc(F)ccc3[nH]2)CC1 (stereo unspecified)

# Target: T1, D(3) dopamine receptor (Homo sapiens, UniProt P35462)
# T1 sequence (P35462 whole entry): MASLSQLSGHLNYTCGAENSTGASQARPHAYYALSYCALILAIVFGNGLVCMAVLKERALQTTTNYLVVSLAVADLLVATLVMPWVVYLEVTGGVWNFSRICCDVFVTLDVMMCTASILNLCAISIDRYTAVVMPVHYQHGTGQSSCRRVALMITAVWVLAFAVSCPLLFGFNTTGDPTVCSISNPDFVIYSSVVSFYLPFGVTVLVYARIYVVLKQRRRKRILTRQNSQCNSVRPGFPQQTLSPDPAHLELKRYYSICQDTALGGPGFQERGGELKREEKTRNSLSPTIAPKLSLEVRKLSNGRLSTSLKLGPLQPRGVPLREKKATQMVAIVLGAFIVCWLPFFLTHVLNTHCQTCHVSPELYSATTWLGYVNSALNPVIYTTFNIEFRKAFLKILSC
# Assay: Agonist activity at human D3 receptor expressed in HEK293 cells assessed as stimulation of mitogenesis relative to quinpirole
# Type: functional, cell-based
# Design: concentration or dose not given beside the values
# Details: not given
row,Structure (SMILES),Activity [%]
1,O=C(NCCC(O)CN1CCN(c2cccc(Cl)c2Cl)CC1)c1cc2cc(I)ccc2o1 (stereo unspecified),23.6
2,O=C(NCC[C@H](O)CN1CCN(c2cccc(Cl)c2Cl)CC1)c1cc2ccccc2[nH]1,42.2
3,O=C(NCCC(O)CN1CCN(c2cccc(Cl)c2Cl)CC1)c1cc2ccccc2o1 (stereo unspecified),22.6

# The next lines start with the values.
row,Activity [%],Structure (SMILES)
1,26,O=C(NCCC(O)CN1CCN(c2cccc(Cl)c2Cl)CC1)c1cc2cc(I)ccc2[nH]1 (stereo unspecified)
2,34.9,COc1ccc2[nH]c(C(=O)NCCC(O)CN3CCN(c4cccc(Cl)c4Cl)CC3)cc2c1 (stereo unspecified)

# Target: T1, D(3) dopamine receptor
# Assay: not given
# Details: not given
row,pKi,Structure (SMILES)
1,9.49,COc1ccccc1N1CCN(CCCCNC(=O)c2cc3ccccc3[nH]2)CC1

# Target: T2, 5-hydroxytryptamine receptor 1A (Homo sapiens, UniProt P08908)
# T2 sequence (P08908 whole entry): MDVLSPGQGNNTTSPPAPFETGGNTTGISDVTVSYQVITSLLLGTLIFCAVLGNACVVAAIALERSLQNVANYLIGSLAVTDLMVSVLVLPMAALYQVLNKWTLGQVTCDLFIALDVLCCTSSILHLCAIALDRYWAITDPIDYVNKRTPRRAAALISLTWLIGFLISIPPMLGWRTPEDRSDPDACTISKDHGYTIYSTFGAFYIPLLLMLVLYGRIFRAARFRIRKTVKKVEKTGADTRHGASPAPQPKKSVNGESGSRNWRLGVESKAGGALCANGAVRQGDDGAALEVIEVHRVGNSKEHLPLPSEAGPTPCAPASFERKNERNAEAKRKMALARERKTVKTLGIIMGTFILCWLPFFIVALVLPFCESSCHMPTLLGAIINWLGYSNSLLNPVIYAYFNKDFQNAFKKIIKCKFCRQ
# Assay: Displacement of [3H]8-OH-DPAT from 5HT1A receptor
# Details: not given
row,pKi,Structure (SMILES)
1,7.23,O=C(NC/C=C/CN1CCN(c2cccc(Cl)c2Cl)CC1)c1cc2ccccc2o1
2,6.88,COc1ccccc1N1CCN(CC(O)CCNC(=O)c2cc3ccccc3[nH]2)CC1 (stereo unspecified)
3,6.71,O=C(NC/C=C/CN1CCN(c2cccc(Cl)c2Cl)CC1)c1cc2ccccc2[nH]1
4,7.23,O=C(NCC(O)CCN1CCN(c2cccc(Cl)c2Cl)CC1)c1cc2ccccc2[nH]1 (stereo unspecified)

row,Structure (SMILES),pKi
1,O=C(NC/C=C/CN1CCN(c2cccc(Cl)c2Cl)CC1)c1cc2ccccc2s1,6.41

# Tested on: not listed separately
# Assay: cells
# Details: Homo sapiens, HEK293
# Description: Antagonist activity at human D2 like receptor expressed in HEK293 cells assessed as inhibition of quinpirole-stimulated mitogenesis
row,Structure (SMILES),pIC50
1,O=C(NCCCCN1CCN(c2cccc(Cl)c2Cl)CC1)c1cc2cc(I)ccc2o1,5.99
2,COc1ccccc1N1CCN(CCCCNC(=O)c2cc3ccccc3s2)CC1,7.67
3,O=C(NC/C=C/CN1CCN(c2cccc(Cl)c2Cl)CC1)c1cc2ccccc2s1,6.60

# Other lines, results leading:
row,pIC50,Structure (SMILES)
1,6.95,O=C(NC/C=C/CN1CCN(c2cccc(Cl)c2Cl)CC1)c1cc2ccccc2o1
2,6.79,CCCOc1ccccc1N1CCN(CC(O)CCNC(=O)c2cc3ccccc3[nH]2)CC1 (stereo unspecified)
3,6.37,COc1ccccc1N1CCN(CC(O)CCNC(=O)c2cc3ccccc3[nH]2)CC1 (stereo unspecified)
4,6.84,COc1ccccc1N1CCN(CC(O)CCNC(=O)c2cc3ccccc3s2)CC1 (stereo unspecified)
5,6.57,COc1ccccc1N1CCN(CC(O)CCNC(=O)c2cc3cc(F)ccc3[nH]2)CC1 (stereo unspecified)
6,6.76,O=C(NC/C=C/CN1CCN(c2cccc(Cl)c2Cl)CC1)c1cc2ccccc2[nH]1
7,6.39,COc1ccccc1N1CCN(CC(O)CCNC(=O)c2cc3cc(I)ccc3o2)CC1 (stereo unspecified)
8,6.47,O=C(NCC(O)CCN1CCN(c2cccc(Cl)c2Cl)CC1)c1cc2ccccc2[nH]1 (stereo unspecified)
9,6.77,COc1ccccc1N1CCN(CCCCNC(=O)c2cc3cc(I)ccc3o2)CC1

# Target: T3, D(4) dopamine receptor (Homo sapiens, UniProt P21917)
# T3 sequence (P21917 whole entry): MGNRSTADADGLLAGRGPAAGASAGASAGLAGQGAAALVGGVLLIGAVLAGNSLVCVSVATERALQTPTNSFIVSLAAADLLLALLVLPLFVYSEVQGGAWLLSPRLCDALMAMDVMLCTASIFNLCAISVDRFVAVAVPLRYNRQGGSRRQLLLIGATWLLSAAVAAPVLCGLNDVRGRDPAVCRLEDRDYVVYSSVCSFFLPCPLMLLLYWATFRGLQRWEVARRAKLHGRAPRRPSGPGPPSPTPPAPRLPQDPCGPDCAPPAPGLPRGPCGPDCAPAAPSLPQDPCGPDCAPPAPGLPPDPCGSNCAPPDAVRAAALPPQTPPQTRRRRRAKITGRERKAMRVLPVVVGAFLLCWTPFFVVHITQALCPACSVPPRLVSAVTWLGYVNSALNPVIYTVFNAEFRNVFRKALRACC
# Assay: biochemical
# Details: not given
row,Structure (SMILES),pKi
1,O=C(NCCC(O)CN1CCN(c2cccc(Cl)c2Cl)CC1)c1cc2cc(F)ccc2[nH]1 (stereo unspecified),< 5.30
2,O=C(NCCCCN1CCN(c2cccc(Cl)c2Cl)CC1)c1cc2cc(I)ccc2o1,5.76
3,COc1ccccc1N1CCN(CCCCNC(=O)c2cc3ccccc3[nH]2)CC1,6.32
4,O=C(NCCC(O)CN1CCN(c2cccc(Cl)c2Cl)CC1)c1cc2cc(I)ccc2o1 (stereo unspecified),< 5.00
5,COc1ccccc1N1CCN(CCC(O)CNC(=O)c2cc3ccccc3[nH]2)CC1 (stereo unspecified),6.75
6,O=C(NCCC(O)CN1CCN(c2cccc(Cl)c2Cl)CC1)c1cc2ccccc2o1 (stereo unspecified),< 5.00
7,COc1ccc2[nH]c(C(=O)NCCC(O)CN3CCN(c4ccccc4OC)CC3)cc2c1 (stereo unspecified),5.82

# Results, then the compound that gave them:
row,pKi,Structure (SMILES)
1,< 5.00,O=C(NCCC(O)CN1CCN(c2cccc(Cl)c2Cl)CC1)c1cc2cc(I)ccc2[nH]1 (stereo unspecified)
2,< 5.00,COc1ccc2[nH]c(C(=O)NCCC(O)CN3CCN(c4cccc(Cl)c4Cl)CC3)cc2c1 (stereo unspecified)
3,6.34,COc1ccccc1N1CCN(CC(O)CCNC(=O)c2cc3cc(I)ccc3[nH]2)CC1 (stereo unspecified)
4,6.01,COc1ccccc1N1CCN(CC(O)CCNC(=O)c2cc3cc(F)ccc3[nH]2)CC1 (stereo unspecified)
5,6.19,O=C(NC/C=C/CN1CCN(c2cccc(Cl)c2Cl)CC1)c1cc2ccccc2[nH]1
6,5.89,COc1ccccc1N1CCN(CC(O)CCNC(=O)c2cc3cc(I)ccc3o2)CC1 (stereo unspecified)
7,5.98,O=C(NCC(O)CCN1CCN(c2cccc(Cl)c2Cl)CC1)c1cc2ccccc2[nH]1 (stereo unspecified)
8,5.67,COc1ccccc1N1CCN(CC(O)CCNC(=O)c2cc3ccccc3o2)CC1 (stereo unspecified)
9,6.47,COc1ccccc1N1CCN(CCCCNC(=O)c2cc3cc(I)ccc3o2)CC1

# Target: T1, D(3) dopamine receptor
# Assay: biochemical
# Details: not given
row,Structure (SMILES),pKi
1,O=C(NCCC(O)CN1CCN(c2cccc(Cl)c2Cl)CC1)c1cc2cc(I)ccc2o1 (stereo unspecified),8.11
2,COc1ccccc1N1CCN(CCC(O)CNC(=O)c2cc3ccccc3[nH]2)CC1 (stereo unspecified),9.29
3,O=C(NCCC(O)CN1CCN(c2cccc(Cl)c2Cl)CC1)c1cc2ccccc2o1 (stereo unspecified),8.21
4,COc1ccc2[nH]c(C(=O)NCCC(O)CN3CCN(c4ccccc4OC)CC3)cc2c1 (stereo unspecified),8.63

# Second part, the compound after the results:
row,pKi,Structure (SMILES)
1,8.28,O=C(NCCC(O)CN1CCN(c2cccc(Cl)c2Cl)CC1)c1cc2cc(I)ccc2[nH]1 (stereo unspecified)
2,8.92,COc1ccc2[nH]c(C(=O)NCCC(O)CN3CCN(c4cccc(Cl)c4Cl)CC3)cc2c1 (stereo unspecified)
3,8.44,COc1ccccc1N1CCN(CC(O)CCNC(=O)c2cc3cc(I)ccc3[nH]2)CC1 (stereo unspecified)
4,8.62,COc1ccccc1N1CCN(CC(O)CCNC(=O)c2cc3cc(F)ccc3[nH]2)CC1 (stereo unspecified)
5,9.36,O=C(NC/C=C/CN1CCN(c2cccc(Cl)c2Cl)CC1)c1cc2ccccc2[nH]1
6,8.12,COc1ccccc1N1CCN(CC(O)CCNC(=O)c2cc3cc(I)ccc3o2)CC1 (stereo unspecified)
7,8.12,COc1ccccc1N1CCN(CC(O)CCNC(=O)c2cc3ccccc3o2)CC1 (stereo unspecified)
8,9.14,COc1ccccc1N1CCN(CCCCNC(=O)c2cc3cc(I)ccc3o2)CC1
9,8.58,COc1ccccc1N1CCN(C/C=C/CNC(=O)c2cc3ccccc3s2)CC1
10,7.95,COc1ccccc1N1CCN(C/C=C/CNC(=O)c2cc3ccccc3o2)CC1

# Target: not listed separately
# Assay: Antagonist activity at human D3 receptor expressed in HEK293 cells assessed as inhibition of quinpirole-stimulated mitogenesis
# Details: not given
row,Structure (SMILES),pIC50
1,O=C(NC/C=C/CN1CCN(c2cccc(Cl)c2Cl)CC1)c1cc2ccccc2s1,8.02
